Results published in the NIST ThermoML archive (doi:10.1016/j.jct.2015.02.024).

Columns and labels:
[1] = for viscosity / mass density: 101.33 kPa, Liquid; for viscosity: Falling or rolling sphere viscometry; for mass density: Vibrating tube method
[2] = activity coefficient (dimensionless); of the first substance listed, at infinite dilution; xn = mol fraction of the nth substance listed; conditions: 101 kPa, Liquid, Chromatography, x1 = 0

C[N+]1(CCCO)CCOCC1.O=S(=O)([N-]S(=O)(=O)C(F)(F)F)C(F)(F)F
[1]
Conditions	mass density [kg/m3]	viscosity [mPa·s]
298.15 K	1536.09	1183
308.15 K	1527.32	565.7
318.15 K	1518.74	280.7
328.15 K	1510.14	156.1
338.15 K	1501.59	94.49
348.15 K	1493.08	61.14
358.15 K	1484.63	37.79
368.15 K	1476.24	27.09

[1], DTA
Conditions	Glass transition temperature [°C]	Normal melting temperature [°C]
Crystal	–	14
Glass	-52.5	–

C=CCCCCCC [oct-1-ene] + C[N+]1(CCCO)CCOCC1.O=S(=O)([N-]S(=O)(=O)C(F)(F)F)C(F)(F)F
[2]
Conditions	activity coefficient
318.15 K	133
328.15 K	117
338.15 K	106
348.15 K	94.6
358.15 K	85.2
368.15 K	77.2

CCCCCCCC [octane] + C[N+]1(CCCO)CCOCC1.O=S(=O)([N-]S(=O)(=O)C(F)(F)F)C(F)(F)F
[2]
Conditions	activity coefficient
318.15 K	315
328.15 K	265
338.15 K	230
348.15 K	199
358.15 K	172
368.15 K	152

CCCC(C)=O [pentan-2-one] + C[N+]1(CCCO)CCOCC1.O=S(=O)([N-]S(=O)(=O)C(F)(F)F)C(F)(F)F
[2]
Conditions	activity coefficient
318.15 K	1.24
328.15 K	1.29
338.15 K	1.34
348.15 K	1.4
358.15 K	1.44
368.15 K	1.48

CCC(=O)CC [pentan-3-one] + C[N+]1(CCCO)CCOCC1.O=S(=O)([N-]S(=O)(=O)C(F)(F)F)C(F)(F)F
[2]
Conditions	activity coefficient
318.15 K	1.28
328.15 K	1.33
338.15 K	1.4
348.15 K	1.45
358.15 K	1.52
368.15 K	1.57

CCCO [propan-1-ol] + C[N+]1(CCCO)CCOCC1.O=S(=O)([N-]S(=O)(=O)C(F)(F)F)C(F)(F)F
[2]
Conditions	activity coefficient
318.15 K	2.06
328.15 K	2.01
338.15 K	1.96
348.15 K	1.92
358.15 K	1.88
368.15 K	1.84

CC(C)O [propan-2-ol] + C[N+]1(CCCO)CCOCC1.O=S(=O)([N-]S(=O)(=O)C(F)(F)F)C(F)(F)F
[2]
Conditions	activity coefficient
318.15 K	1.83
328.15 K	1.78
338.15 K	1.74
348.15 K	1.71
358.15 K	1.67
368.15 K	1.64

c1ccncc1 [pyridine] + C[N+]1(CCCO)CCOCC1.O=S(=O)([N-]S(=O)(=O)C(F)(F)F)C(F)(F)F
[2]
Conditions	activity coefficient
318.15 K	0.414
328.15 K	0.461
338.15 K	0.501
348.15 K	0.55
358.15 K	0.593
368.15 K	0.639

C=Cc1ccccc1 [styrene] + C[N+]1(CCCO)CCOCC1.O=S(=O)([N-]S(=O)(=O)C(F)(F)F)C(F)(F)F
[2]
Conditions	activity coefficient
318.15 K	3.45
328.15 K	3.51
338.15 K	3.58
348.15 K	3.66
358.15 K	3.72
368.15 K	3.78

C1CCOC1 [tetrahydrofuran] + C[N+]1(CCCO)CCOCC1.O=S(=O)([N-]S(=O)(=O)C(F)(F)F)C(F)(F)F
[2]
Conditions	activity coefficient
318.15 K	0.968
328.15 K	1.03
338.15 K	1.08
348.15 K	1.12
358.15 K	1.18
368.15 K	1.23

c1ccsc1 [thiophene] + C[N+]1(CCCO)CCOCC1.O=S(=O)([N-]S(=O)(=O)C(F)(F)F)C(F)(F)F
[2]
Conditions	activity coefficient
318.15 K	1.89
328.15 K	1.92
338.15 K	1.95
348.15 K	1.98
358.15 K	2
368.15 K	2.03

Cc1ccccc1 [toluene] + C[N+]1(CCCO)CCOCC1.O=S(=O)([N-]S(=O)(=O)C(F)(F)F)C(F)(F)F
[2]
Conditions	activity coefficient
318.15 K	4.03
328.15 K	4.08
338.15 K	4.11
348.15 K	4.16
358.15 K	4.19
368.15 K	4.22

C=COC(C)=O [vinyl acetate] + C[N+]1(CCCO)CCOCC1.O=S(=O)([N-]S(=O)(=O)C(F)(F)F)C(F)(F)F
[2]
Conditions	activity coefficient
318.15 K	1.87
328.15 K	1.91
338.15 K	1.94
348.15 K	1.98
358.15 K	2
368.15 K	2.03

O [water] + C[N+]1(CCCO)CCOCC1.O=S(=O)([N-]S(=O)(=O)C(F)(F)F)C(F)(F)F
[2]
Conditions	activity coefficient
318.15 K	1.43
328.15 K	1.36
338.15 K	1.28
348.15 K	1.21
358.15 K	1.15
368.15 K	1.1
